# In patent US12084472B2 (Ardelyx, Inc., priority 2015, dated 2024):
# Molecular target: T1, human TGR5 (Homo sapiens, UniProt Q8TDU6)
# T1 construct: expressed in transfected cells; host or cells: HEK293
# T1 sequence (Q8TDU6 1-330): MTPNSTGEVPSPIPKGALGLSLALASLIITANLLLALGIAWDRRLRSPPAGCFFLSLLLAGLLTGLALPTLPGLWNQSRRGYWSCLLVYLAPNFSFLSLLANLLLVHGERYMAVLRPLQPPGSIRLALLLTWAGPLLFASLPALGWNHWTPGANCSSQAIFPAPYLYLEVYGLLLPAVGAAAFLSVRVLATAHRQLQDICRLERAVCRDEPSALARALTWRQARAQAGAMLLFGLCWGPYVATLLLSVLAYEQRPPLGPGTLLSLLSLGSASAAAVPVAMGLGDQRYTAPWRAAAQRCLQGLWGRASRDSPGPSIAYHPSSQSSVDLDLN
# Test: Cell-based TGR5 assay (cAMP generation, HTRF)
# Details: HEK293 cells stably transfected with human TGR5; cAMP by HTRF; 30 minutes at 37° C.; read-out: pEC50 Human TGR5 (converted)
# Outline: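 Read-out was HTRF detection of cAMP, converted to concentration via a standard curve and fitted (3-parameter logistic) for pEC50 and maximal response. Agonist stimulation used HEK293 cells stably transfected with human TGR5, incubated 30 min at 37° C in IBMX-containing buffer at 0.05 nM to 10 μM compound.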
row,Compound,EC50 [nM]
1,"Cc1ccc(C(C)CCCC(=O)N(CCCO)C[C@H](O)[C@@H](O)[C@H](O)[C@H](O)CO)cc1CNC1(c2cnccc2-c2ccccc2OC2CC2)CC1 (stereo partly drawn) [Compound I-358, 5-{3-[({1-[4-(2-cyclopropoxyphenyl)pyridin-3-yl]cyclopropyl}amino)methyl]-4-methylphenyl}-N-(3-hydroxypropyl)-N-[(2S,3R,4R,5R)-2,3,4,5,6-pentahydroxyhexyl]hexanamide]",126 to 1000
2,"O=C(NCCCCc1cc(Cl)c(COC2(c3cnccc3-c3ccccc3OC3CC3)CC2)cc1Cl)[C@@H](O)[C@@H](O)[C@H](O)[C@@H](O)CN1CCOCC1 (stereo in doubt) [Compound I-179, (2S,3S,4R,5S)-N-{4-[2,5-dichloro-4-({1-[4-(2-cyclopropoxyphenyl)pyridin-3-yl]cyclopropoxy}methyl)phenyl]butyl}-2,3,4,5-tetrahydroxy-6-(morpholin-4-yl)hexanamide]",< 100
3,"O=C(NCCCC1(c2ccc(Cl)c(CNC3(c4cnccc4-c4ccccc4OC4CC4)CC3)c2)CC1)[C@@H](O)[C@@H](O)[C@H](O)[C@@H](O)CO [Compound I-382, (2S,3S,4R,5S)-N-[3-(1-[4-chloro-3-[([1-[4-(2-cyclopropoxyphenyl)pyridin-3-yl]cyclopropyl]amino)methyl]phenyl]cyclopropyl)propyl]-2,3,4,5,6-pentahydroxyhexanamide]",< 100
4,"COc1cc(Cl)c(COC2(c3cnccc3-c3ccccc3OC3CC3)CC2)cc1S(=O)(=O)N(C)C [Compound I-730, 4-chloro-5-([1-[4-(2-cyclopropoxyphenyl)pyridin-3-yl]cyclopropoxy]methyl)-2-methoxy-N,N-dimethylbenzene-1-sulfonamide]",< 100
5,"CC(CCCC(=O)NC[C@H](O)[C@@H](O)[C@H](O)[C@H](O)CO)c1cc(Cl)c(CNC2(c3cnccc3-c3ccccc3OC3CC3)CC2)cc1Cl (stereo partly drawn) [Compound I-260, 5-[2,5-dichloro-4-[([1-[4-(2-cyclopropoxyphenyl)pyridin-3-yl]cyclopropyl]amino)methyl]phenyl]-N-[(2S,3R,4R,5R)-2,3,4,5,6-pentahydroxyhexyl]hexanamide]",< 100
6,"O=C([C@@H](O)[C@@H](O)[C@H](O)[C@@H](O)CO)N(CCCCO)CCCCSc1ccc(Cl)c(CNC2(c3cnccc3-c3ccccc3OC3CC3)CC2)c1 [Compound I-534, (2S,3S,4R,5S)-N-[4-({4-chloro-3-[({1-[4-(2-cyclopropoxyphenyl)pyridin-3-yl]cyclopropyl}amino)methyl]phenyl}sulfanyl)butyl]-2,3,4,5,6-pentahydroxy-N-(4-hydroxybutyl)hexanamide]",< 100
7,"CN(CCCCNC(=O)NC[C@H](O)[C@@H](O)[C@H](O)[C@H](O)CO)S(=O)(=O)c1ccc(C(F)(F)F)c(CNC2(c3cnccc3-c3ccccc3OC3CC3)CC2)c1 [Compound I-468, 1-(4-{N-methyl3-[({11-[4-(2-cyclopropoxyphenyl)pyridin-3-yl]cyclopropyl}amino)methyl]-4-(trifluoromethyl)benzenesulfonamido}butyl)-3-[(2S,3R,4R,5R)-2,3,4,5,6-pentahydroxyhexyl]urea]",126 to 1000
8,"COc1ccccc1-c1ccncc1C1(NCc2cc(Cl)c(CCCCC(=O)NC[C@H](O)[C@@H](O)[C@H](O)[C@H](O)CO)cc2Cl)CC1 [Compound I-133, 5-{2,5-dichloro-4-[({1-[4-(2-methoxyphenyl)pyridin-3-yl]cyclopropyl}amino)methyl]phenyl}-N-[(2S,3R,4R,5R)-2,3,4,5,6-pentahydroxyhexyl]pentanamide]",126 to 1000
9,"CN(CCCCNC(=O)NC[C@H](O)[C@@H](O)[C@H](O)[C@H](O)CO)S(=O)(=O)c1cc(COC2(c3cnccc3-c3ccccc3OC3CC3)CC2)c(Cl)cc1F [Compound I-466, 1-{4-[N-methyl4-chloro-5-({1-[4-(2-cyclopropoxyphenyl)pyridin-3-yl]cyclopropoxy}methyl)-2-fluorobenzenesulfonamido]butyl}-3-[(2S,3R,4R,5R)-2,3,4,5,6-pentahydroxyhexyl]urea]",< 100
10,"Clc1ccc(COC2(c3cnccc3-c3ccccc3OC3CC3)CC2)c(Cl)c1 [Compound I-48, 4-(2-cyclopropoxyphenyl)-3-{1-[(2,4-dichlorophenyl)methoxy]cyclopropyl}pyridine]",126 to 1000
11,"CSc1ncc(C)c(CNC2(c3cnccc3-c3ccccc3OC3CC3)CC2)n1 [Compound I-496, 1-[4-(2-Cyclopropoxyphenyl)pyridin-3-yl]-N-[[5-methyl-2-(methylsulfanyl)pyrimidin-4-yl]methyl]cyclopropan-1-amine]",< 100
12,"Cc1cc(COC2(c3cnccc3-c3ccccc3OC3CC3)CC2)c(Cl)cc1CCCCNC(=O)N1CCN(C[C@H](O)[C@@H](O)[C@@H](O)[C@H](O)CO)CC1 [Compound I-114, N-{4-[5-chloro-4-({1-[4-(2-cyclopropoxyphenyl)pyridin-3-yl]cyclopropoxy}methyl)-2-methylphenyl]butyl}-4-[(2S,3R,4S,5R)-2,3,4,5,6-pentahydroxyhexyl]piperazine-1-carboxamide]",< 100

# Other lines, results leading:
row,EC50 [nM],Compound
1,126 to 1000,"O=C([C@@H](O)[C@@H](O)[C@H](O)[C@@H](O)CO)N(CCCSc1ccc(Cl)c(COC2(c3cnccc3-c3ccccc3OC3CC3)CC2)c1)C1CCOCC1 [Compound I-565, (2S,3S,4R,5S)-N-(3-{[4-chloro-3-({1-[4-(2-cyclopropoxyphenyl)pyridin-3-yl]cyclopropoxy}methyl)phenyl]sulfanyl}propyl)-2,3,4,5,6-pentahydroxy-N-(oxan-4-yl)hexanamide]"
2,126 to 1000,"CS(=O)(=O)CCCN(CCCSc1ccc(Cl)c(COC2(c3cnccc3-c3ccccc3OC3CC3)CC2)c1)C(=O)[C@@H](O)[C@@H](O)[C@H](O)[C@@H](O)CO [Compound I-558, (2S,3S,4R,5S)-N-(3-{[4-chloro-3-({1-[4-(2-cyclopropoxyphenyl)pyridin-3-yl]cyclopropoxy}methyl)phenyl]sulfanyl}propyl)-2,3,4,5,6-pentahydroxy-N-(3-methanesulfonylpropyl) hexanamide]"
3,< 100,"Cc1cc(COC2(c3cnccc3-c3ccccc3OC3CC3)CC2)c(C)cc1CCCCC(=O)NC[C@H](O)[C@@H](O)[C@H](O)[C@H](O)CO [Compound I-229, 5-[4-({1-[4-(2-cyclopropoxyphenyl)pyridin-3-yl]cyclopropoxy}methyl)-2,5-dimethylphenyl]-N-[(2S,3R,4R,5R)-2,3,4,5,6-pentahydroxyhexyl]pentanamide]"
4,126 to 1000,"O=C(N[C@@H](CO)[C@@H](O)[C@H](O)[C@H](O)CO)c1cccc(OCc2ccc(Cl)c(COC3(c4cnccc4-c4ccccc4OC4CC4)CC3)c2)c1 [Compound I-756, 3-((4-chloro-3-((1-(4-(2-cyclopropoxyphenyl)pyridin-3-yl)cyclopropoxy)methyl)benzyl)oxy)-N-((2S,3R,4S,5R)-1,3,4,5,6-pentahydroxyhexan-2-yl)benzamide]"
5,< 100,"CN(C[C@H](O)[C@@H](O)[C@H](O)[C@H](O)CO)C(=O)CCSc1ccc(Cl)c(CNC2(c3cnccc3-c3ccccc3OC3CC3)CC2)c1 [Compound I-676, 3-({4-chloro-3-[({1-[4-(2-cyclopropoxyphenyl)pyridin-3-yl]cyclopropyl}amino)methyl]phenyl}sulfanyl)-N-methyl-N-[(2S,3R,4R,5R)-2,3,4,5,6-pentahydroxyhexyl]propanamide]"
